Values joined by “and” are separate entries in the source; they are usually repeats but may differ in a detail not shown here. Identical values can stand only once.
What was measured:
[1] = biological target: T1, Aa ΔA/B EcR + RXRα + GRIP1 (Aedes aegypti, UniProt P49880); test: Yeast 6x EcRE-lacZ β-galactosidase transactivation assay; assay type: cell-based, Aedes aegypti; human; conditions: RH 5992 10 μM, 4 hours, DMSO control 0.544
T1 construct: ubiquitin (human, 76 aa) (N, cleaved yes); expressed in transfected cells
Method: The human RXR α (Genbank accession number X52773), mouse RXR β (Genbank accession number X66224) or mouse RXR γ (Genebank accession number X66225) subtypes were expressed in yeast-E. coli multicopy 2μ expression plasmids under regulation of CUP1 promoter with the LEU2 selective marker (1).
Briefly, yeast cells are cultured in 5 mL of YPD liquid medium overnight at 30° C. The cell culture was diluted 1:20 in YPD media and further grown until cell density reached an O.D of 0.6. at OD600. The cells were pelleted by centrifugation and washed with 10 mL of TE+0.1M lithium acetate. Cells are then resuspended in 10 mL TE+0.1M lithium acetate and incubated at 30° C. for 1 hour. Cells are collected and resuspended in 0.5 mL of TE+ 0.1M lithium acetate. […]
Using the transformation method described above, yeast were co-transformed with a reporter gene as shown in FIG. 2 and the expression vector encoding the full-length Aedes aegypti ecdysone receptor, Aa EcR (FIG. 7A) in the presence or absence of the Aa EcR heterodimer partner, Aa USP (a or b form, FIGS. 8A and 8B respectively). […] As the N-terminal portion of the AaEcR receptor is reported to play a role in ligand independent transactivation, an expression vector containing an N-terminal deletion in the Aa EcR was constructed (see FIG. 7B) and assessed in the β-galactosidase assays described above. […]

[2] = biological target: T2, Cf ΔA/B EcR + Cf ΔA/B USP + GRIP1 (Choristoneura fumiferana, UniProt O77240); test: as above; assay type: cell-based; conditions: RH 5992 10 μM, 4 hours, DMSO control 0.200
T2 construct: human ubiquitin (76 aa) (N, cleaved yes); expressed in transfected cells; host or cells: yeast (Saccharomyces cerevisiae)
Method: Briefly, yeast cells are cultured in 5 mL of YPD liquid medium overnight at 30° C. The cell culture was diluted 1:20 in YPD media and further grown until cell density reached an O.D of 0.6. at OD600. The cells were pelleted by centrifugation and washed with 10 mL of TE+0.1M lithium acetate. Cells are then resuspended in 10 mL TE+0.1M lithium acetate and incubated at 30° C. for 1 hour. Cells are collected and resuspended in 0.5 mL of TE+ 0.1M lithium acetate. Aliquots of cells (50 μL), were incubated for 15 minutes at 30° C. with 1–2 μg plasmid DNA in the presence of 5 μg of denatured salmon sperm DNA as DNA carrier. In the case of co-transformation, the indicated plasmids were added simultaneously. 50% polyethyleneglycol of molecular weight 4000, diluted in TE, was added to a final concentration of 35%. DMSO was added to the transformation solution simultaneously to a final concentration 3%. The samples were mixed well by vortexing and incubated for an additional 30 minutes at 30° C. The cell mixture is then heated for 15 minutes at 42° C. Cells were then collected and plated onto appropriate yeast selective media. Transformants of 4 plasmids are selected on the complete media without tryptophan, uracil, leucine and histidine.
The yeast cells grown overnight in selective liquid media at 30° C. were diluted in prewarmed liquid selective media to 0.1 at OD600 (ODculture). […]

T2 sequence (O77240 entry or part of it, stated change not applied): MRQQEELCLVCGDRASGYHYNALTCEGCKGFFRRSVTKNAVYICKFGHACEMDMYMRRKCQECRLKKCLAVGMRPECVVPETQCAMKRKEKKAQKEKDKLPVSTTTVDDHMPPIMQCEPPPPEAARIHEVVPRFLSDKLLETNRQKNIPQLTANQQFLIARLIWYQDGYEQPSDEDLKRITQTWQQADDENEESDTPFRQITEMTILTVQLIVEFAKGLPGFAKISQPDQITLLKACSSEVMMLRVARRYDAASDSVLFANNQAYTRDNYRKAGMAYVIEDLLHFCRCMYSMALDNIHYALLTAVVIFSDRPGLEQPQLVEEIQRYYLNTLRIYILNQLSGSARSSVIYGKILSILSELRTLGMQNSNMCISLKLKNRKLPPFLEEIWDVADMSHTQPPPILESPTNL
T2 sequence (O76202 with tags, fused parts or gaps partner): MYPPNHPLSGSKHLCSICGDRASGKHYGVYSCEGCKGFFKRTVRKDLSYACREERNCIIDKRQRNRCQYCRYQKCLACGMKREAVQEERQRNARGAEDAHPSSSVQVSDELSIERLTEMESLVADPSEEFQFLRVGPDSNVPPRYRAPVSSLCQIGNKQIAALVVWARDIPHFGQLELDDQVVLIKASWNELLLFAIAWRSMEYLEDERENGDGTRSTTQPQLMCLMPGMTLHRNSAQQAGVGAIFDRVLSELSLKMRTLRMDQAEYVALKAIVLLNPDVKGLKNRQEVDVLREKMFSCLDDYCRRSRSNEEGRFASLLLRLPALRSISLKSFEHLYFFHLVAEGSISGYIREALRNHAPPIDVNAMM
T1 sequence (P49880 with tags, fused parts or gaps): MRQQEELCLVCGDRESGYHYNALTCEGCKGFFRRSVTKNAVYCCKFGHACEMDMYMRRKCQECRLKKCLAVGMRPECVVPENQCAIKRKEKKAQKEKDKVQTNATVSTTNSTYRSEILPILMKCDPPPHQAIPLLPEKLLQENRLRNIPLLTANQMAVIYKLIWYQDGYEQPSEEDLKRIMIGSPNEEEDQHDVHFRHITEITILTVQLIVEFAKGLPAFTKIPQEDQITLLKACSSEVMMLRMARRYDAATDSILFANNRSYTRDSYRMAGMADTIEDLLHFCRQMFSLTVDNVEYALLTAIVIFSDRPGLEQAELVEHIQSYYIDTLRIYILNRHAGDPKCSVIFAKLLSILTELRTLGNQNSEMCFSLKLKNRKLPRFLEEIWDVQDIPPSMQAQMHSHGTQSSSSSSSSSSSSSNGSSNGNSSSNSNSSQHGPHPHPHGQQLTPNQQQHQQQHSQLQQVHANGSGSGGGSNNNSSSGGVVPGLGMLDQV
T1 sequence (P19793 whole entry partner): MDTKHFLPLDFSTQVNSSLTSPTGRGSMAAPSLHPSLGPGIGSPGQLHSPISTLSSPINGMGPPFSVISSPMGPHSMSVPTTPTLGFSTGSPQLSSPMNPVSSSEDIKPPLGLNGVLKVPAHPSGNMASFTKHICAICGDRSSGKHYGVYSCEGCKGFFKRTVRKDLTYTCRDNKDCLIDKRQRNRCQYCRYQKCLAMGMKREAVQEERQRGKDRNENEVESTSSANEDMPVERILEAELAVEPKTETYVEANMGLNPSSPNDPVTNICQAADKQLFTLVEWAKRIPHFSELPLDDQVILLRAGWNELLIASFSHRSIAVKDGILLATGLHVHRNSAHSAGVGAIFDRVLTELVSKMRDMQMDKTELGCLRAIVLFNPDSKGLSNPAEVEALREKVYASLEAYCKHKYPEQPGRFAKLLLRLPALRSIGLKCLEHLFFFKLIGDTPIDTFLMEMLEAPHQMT

`CCc1ccc(C(=O)NN(C(=O)c2cc(C)cc(C)c2)C(C)(C)C)cc1` [RH 5992, tebufenozide] was tested, and the β-galactosidase activity [1] was 2.032 and the β-galactosidase activity [2] was 2.500 and 3.000.
